Experimental data as given in ChEMBL document CHEMBL5137081, “N-Heterocyclic 3-Pyridyl Carboxamide Inhibitors of DHODH for the Treatment of Acute Myelogenous Leukemia” (J Med Chem, 2022).
Converted amounts (≈) assume the structure as drawn.

What was measured:
[1] = Metabolic stability in human liver microsome assessed as intrinsic clearance pretreated for 5 mins followed by NADPH addition and measured upto 60 mins by HPLC-MS/MS analysis; format: ADME; details: microsomes, 1.083 h, time < 65 min
MOLM-13 = experiment: Antiproliferative activity against human MOLM-13 cells incubated for 72 hrs by CellTiter-Glo assay; format: functional, cell-based; details: MOLM-13, 72 h
[2] = Stability in human hepatocytes assessed as intrinsic clearance measured per 10^6 cells incubated upto 120 mins by LC-MS/MS analysis; format: ADME, cell-based, Hepatocyte; details: 2 h
[3] = biological target: Dihydroorotate dehydrogenase (quinone), mitochondrial (Homo sapiens, UniProt Q02127); experiment: Inhibition of His fused human DHODH expressed in Escherichia coli using DHO as substrate by DCIP absorbance based colorimetry assay
Sequence of Dihydroorotate dehydrogenase (quinone), mitochondrial (Q02127 whole entry, the tested form may be a part): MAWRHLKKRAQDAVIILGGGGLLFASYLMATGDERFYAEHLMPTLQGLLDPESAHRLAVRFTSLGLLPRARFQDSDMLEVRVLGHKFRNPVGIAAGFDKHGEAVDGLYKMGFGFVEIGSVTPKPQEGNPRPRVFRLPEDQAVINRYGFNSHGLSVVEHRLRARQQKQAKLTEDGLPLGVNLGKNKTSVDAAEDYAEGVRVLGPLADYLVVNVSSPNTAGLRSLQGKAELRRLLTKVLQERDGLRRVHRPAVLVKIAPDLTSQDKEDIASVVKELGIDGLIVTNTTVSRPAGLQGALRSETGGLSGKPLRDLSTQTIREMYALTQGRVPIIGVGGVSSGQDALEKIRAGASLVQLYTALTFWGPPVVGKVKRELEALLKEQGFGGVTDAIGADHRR

[4] = Solubility of compound at pH 7 by HPLC analysis; format: physicochemical; details: buffer
MDR1 = experiment: Efflux ratio of apparent permeability across basolateral to apical side over apical to basolateral side in dog MDCK-MDR1 cells; format: ADME, cell-based, Canis lupus familiaris

SMILES | CLH [1] | IC50 (MOLM-13) | CLH [2] | IC50 [3] | solubility [4] | efflux ratio (MDR1)
CCn1c(CO)nn(-c2nc(NC(C)C)c(C(=O)Nc3c(F)cccc3Cl)cc2F)c1=O | – | 200 nM | – | 3600 nM | – | –
CCn1c(CO)nn(-c2nc(O[C@@H](C)C(F)(F)F)c(C(=O)Nc3ccccc3F)cc2F)c1=O | < 8 µL/min/mg | 5 nM | – | 6.1 nM | – | –
CCn1c(CO)nn(-c2nc(OC3CC(F)(F)C3(F)F)c(C(=O)Nc3c(F)cccc3Cl)cc2F)c1=O (stereo not drawn) | – | 20 nM | – | 22 nM | – | –
CCn1c(CO)nn(-c2nc(O[C@@H](C)C(F)(F)F)c(C(=O)Nc3ccncc3Cl)cc2F)c1=O | 15 µL/min/mg | 61 nM | – | 23 nM | < 4 µM | –
CCC(C)Nc1nccc(-c2cnc3sc(C)cn3c2=O)n1 (stereo not drawn) | – | – | – | 1400 nM | – | –
CCn1c(CO)nn(-c2nc(O[C@@H](C)C(F)(F)F)c(C(=O)Nc3ccnc(OC)c3Cl)cc2F)c1=O | < 7.7 µL/min/mg | 13 nM | – | 11 nM | – | –
CCn1c(CO)nn(-c2nc(OC3CCOC3)c(C(=O)Nc3c(F)cccc3Cl)cc2F)c1=O (racemic) | – | 25 nM | – | 32 nM | – | –
CCn1c(CO)nn(-c2nc(O[C@@H](C)C(F)(F)F)c(C(=O)Nc3ccc(C)nc3Cl)cc2F)c1=O | – | 13 nM | – | 14 nM | – | –
CCn1c(CO)nn(-c2nc(O[C@@H](C)C(F)(F)F)c(C(=O)Nc3cc(C)cnc3Cl)cc2F)c1=O | – | 50 nM | – | 5.7 nM | – | –
CCn1c(CO)nn(-c2nc(O[C@@H](C)C(F)(F)F)c(C(=O)Nc3cc(OC)ncc3C)cc2F)c1=O | – | 26 nM | – | 10 nM | – | 17
CCn1c(CO)nn(-c2nc(SC(C)C)c(C(=O)Nc3c(F)cccc3Cl)cc2F)c1=O | 15 µL/min/mg | 0.19 nM | – | 302 nM | – | –
CCn1c(CO)nn(-c2nc(O[C@@H](C)C(F)(F)F)c(C(=O)Nc3c(F)cnc(OC)c3C#N)cc2F)c1=O | – | 1 nM | – | 16 nM | – | > 30

Stronger by IC50 [3], values ahead:

CLH [1] | IC50 (MOLM-13) | CLH [2] | IC50 [3] | solubility [4] | efflux ratio (MDR1) | SMILES
10 µL/min/mg | 0.3 nM | 51 µL/min/1e6 cells | 0.3 nM | 51 µM (≈ 27.3 µg/mL) | – | CCn1c(CO)nn(-c2nc(O[C@@H](C)C(F)(F)F)c(C(=O)Nc3c(Cl)ccnc3OC)cc2F)c1=O
45 µL/min/mg | 9.3 nM | – | 4.7 nM | – | – | CCn1c(CO)nn(-c2nc(O[C@@H](C)C(F)(F)F)c(C(=O)Nc3cnccc3Cl)cc2F)c1=O
9.1 µL/min/mg | 6.9 nM | – | 5.2 nM | 98 µM (≈ 49.5 µg/mL) | – | CCn1c(CO)nn(-c2nc(O[C@@H](C)C(F)(F)F)c(C(=O)Nc3ncccc3Cl)cc2F)c1=O
10 µL/min/mg | 0.16 nM | – | 0.2 nM | < 4 µM | – | CCn1c(CO)nn(-c2nc(O[C@@H](C)C(F)(F)F)c(C(=O)Nc3c(F)cccc3Cl)cc2F)c1=O
< 7.7 µL/min/mg | 0.2 nM | – | 0.5 nM | 4 µM (≈ 1.87 µg/mL) | – | CCn1c(CO)nn(-c2nc(OC(C)C)c(C(=O)Nc3c(F)cccc3Cl)cc2F)c1=O
– | 3 nM | – | 0.8 nM | – | > 30 | CCn1c(CO)nn(-c2nc(O[C@@H](C)C(F)(F)F)c(C(=O)Nc3c(C)cc(OC)nc3Cl)cc2F)c1=O
< 7.7 µL/min/mg | 2.1 nM | – | 0.56 nM | 373 µM (≈ 197 µg/mL) | > 30 | CCn1c(CO)nn(-c2nc(O[C@@H](C)C(F)(F)F)c(C(=O)Nc3c(C)cnc(OC)c3C)cc2F)c1=O
< 7.7 µL/min/mg | 1.4 nM | – | 1.1 nM | < 4 µM | – | CCn1c(CO)nn(-c2nc(O[C@@H](C)C(F)(F)F)c(C(=O)Nc3c(F)cnc(OC)c3Cl)cc2F)c1=O
< 7.7 µL/min/mg | 4 nM | > 400 µL/min/1e6 cells | 2.4 nM | > 400 µM | – | CCn1c(CO)nn(-c2nc(O[C@@H](C)C(F)(F)F)c(C(=O)Nc3c(C)ccnc3C(F)F)cc2F)c1=O
< 7.7 µL/min/mg | 5.3 nM | > 400 µL/min/1e6 cells | 1.9 nM | > 400 µM | – | CCn1c(CO)nn(-c2nc(O[C@@H](C)C(F)(F)F)c(C(=O)Nc3c(Cl)ccnc3C)cc2F)c1=O
14 µL/min/mg | 0.7 nM | 381 µL/min/1e6 cells | 0.6 nM | 381 µM (≈ 205 µg/mL) | – | CCn1c(CO)nn(-c2nc(O[C@@H](C)C(F)(F)F)c(C(=O)Nc3c(Cl)ccnc3Cl)cc2F)c1=O
14 µL/min/mg | 5 nM | 61 µL/min/1e6 cells | 2.4 nM | 61 µM (≈ 30.6 µg/mL) | – | CCn1c(CO)nn(-c2nc(O[C@@H](C)C(F)(F)F)c(C(=O)Nc3c(C)ccnc3F)cc2F)c1=O
– | 3.6 nM | – | 2.3 nM | – | – | CCn1c(CO)nn(-c2nc(O[C@@H](C)C(F)(F)F)c(C(=O)Nc3c(F)cncc3Cl)cc2F)c1=O
< 8 µL/min/mg | 6.5 nM | – | 2.8 nM | < 4 µM | – | CCn1c(CO)nn(-c2nc(O[C@@H](C)C(F)(F)F)c(C(=O)Nc3cccnc3Cl)cc2F)c1=O
